Measured values reported in patent US11965039B2, “Compstatin analogues and their medical uses” (priority 2018, dated 2024).
Starred links: 1 amine or outer side, 2 acyl side, 3 side chain; linkers in the order of their positions; H or OH if unused. Positions of bridges follow the written chain, without caps; N, C: chain ends. Non-standard residues stand in square brackets, D forms with d. Residues, ends and D or L forms follow the SMILES beside them. Groups on a side chain read outwards from the residue. *: point of attachment. C20 diacid = O=C(O)CCCCCCCCCCCCCCCCCCC(=O)*; Trp(1-Me) = Cn1cc(C[C@H](N)C(=O)O)c2ccccc21; C18 diacid = O=C(O)CCCCCCCCCCCCCCCCC(=O)*; C16 diacid = O=C(O)CCCCCCCCCCCCCCC(=O)*; γGlu = O=C(O)[C@H](CCC(=O)[*:2])N[*:1]; AEEA = NCCOCCOCC(=O)O; Aoc = NCCCCCCCC(=O)O; Sar = CNCC(=O)O

What follows are molecules tested on classical complement pathway (assay: In vitro haemolysis assay (inhibition of classical complement pathway)). Conditions: human serum, sensitized sheep red blood cells; Table 3, given as upper bounds; read-out: IC50, inhibition of hemolysis.
Format: cell-based, human
Method in brief: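 Compound dilutions preincubated 15 min at room temperature with diluted human serum (titrated per batch for 70-90% maximal haemolysis), then antibody-sensitized sheep RBC (10^7/well) added for 30 min at 37 °C in Tris/casein buffer, pH 7.4. Stopped with EDTA; haemolysis read at 405 nm; IC50 by 4PL fit.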
For `CC[C@H](C)[C@@H]1NC(=O)[C@@H](NC(=O)[C@H](Cc2ccc(O)cc2)NC(=O)[C@H](CCC(=O)O)NC(=O)[C@H](CO)NC(C)=O)CSSC[C@@H](C(=O)N(C)CC(=O)N[C@@H](CCC(=O)O)C(=O)NCC(=O)N[C@@H](CCC(=O)O)C(=O)NCCOCCOCC(=O)NCCOCCOCC(=O)N[C@@H](CCCCNC(=O)CC[C@H](NC(=O)CNC(=O)CC[C@H](NC(=O)CCCCCCCCCCCCCCCCC(=O)O)C(=O)O)C(=O)O)C(N)=O)NC(=O)[C@H](CCCNC(=N)N)NC(=O)[C@H](Cc2c[nH]cn2)NC(=O)[C@H](CCC(=O)O)NC(=O)CNC(=O)[C@H](Cc2c[nH]c3ccccc23)NC(=O)[C@H](CCC(=O)O)NC(=O)[C@H](CCC(N)=O)NC(=O)[C@H](Cc2cn(C)c3ccccc23)NC1=O` [Compound 125] (Ac-SEYCI[Trp(1-Me)]QEWGEHRC[Sar]EGE[AEEA][AEEA]K([γGlu-Gly-γGlu-C18 diacid])-NH2; disulfide 4-14), the IC50 was less than 500 nM.
`CC[C@H](C)[C@@H]1NC(=O)[C@@H](NC(=O)[C@H](Cc2ccccc2)NC(=O)[C@H](CCC(=O)O)NC(=O)[C@H](CO)NC(C)=O)CSSC[C@@H](C(=O)N[C@H](C(=O)N[C@@H](CCC(=O)O)C(=O)NCC(=O)N[C@@H](CCC(=O)O)C(=O)NCCOCCOCC(=O)NCCOCCOCC(=O)N[C@@H](CCCCNC(=O)CC[C@H](NC(=O)CNC(=O)CC[C@H](NC(=O)CCCCCCCCCCCCCCCCC(=O)O)C(=O)O)C(=O)O)C(N)=O)[C@@H](C)O)NC(=O)[C@H](CCCNC(=N)N)NC(=O)[C@H](Cc2c[nH]cn2)NC(=O)[C@H](CCC(=O)O)NC(=O)CNC(=O)[C@H](Cc2c[nH]c3ccccc23)NC(=O)[C@H](CC(=O)O)NC(=O)[C@H](CCC(N)=O)NC(=O)[C@H](Cc2cn(C)c3ccccc23)NC1=O` [Compound 126] (Ac-SEFCI[Trp(1-Me)]QDWGEHRCTEGE[AEEA][AEEA]K([γGlu-Gly-γGlu-C18 diacid])-NH2; disulfide 4-14) was tested, and the IC50 was less than 100 nM.
For `CC[C@H](C)[C@@H]1NC(=O)[C@@H](NC(=O)[C@H](Cc2ccccc2)NC(=O)[C@H](CCC(=O)O)NC(=O)[C@H](CO)NC(C)=O)CSSC[C@@H](C(=O)N(C)CC(=O)N[C@@H](CCC(=O)O)C(=O)NCC(=O)N[C@@H](CCC(=O)O)C(=O)NCCOCCOCC(=O)NCCOCCOCC(=O)N[C@@H](CCCCNC(=O)CC[C@H](NC(=O)CNC(=O)CC[C@H](NC(=O)CCCCCCCCCCCCCCC(=O)O)C(=O)O)C(=O)O)C(N)=O)NC(=O)[C@H](CCCNC(=N)N)NC(=O)[C@H](Cc2c[nH]cn2)NC(=O)[C@H](CCC(=O)O)NC(=O)CNC(=O)[C@H](Cc2c[nH]c3ccccc23)NC(=O)[C@H](CC(=O)O)NC(=O)[C@H](CCC(N)=O)NC(=O)[C@H](Cc2cn(C)c3ccccc23)NC1=O` [Compound 127] (Ac-SEFCI[Trp(1-Me)]QDWGEHRC[Sar]EGE[AEEA][AEEA]K([γGlu-Gly-γGlu-C16 diacid])-NH2; disulfide 4-14), the IC50 was less than 100 nM.
In the case of `CC[C@H](C)[C@@H]1NC(=O)[C@@H](NC(=O)[C@H](Cc2ccccc2)NC(=O)[C@H](CCC(=O)O)NC(=O)[C@H](CO)NC(C)=O)CSSC[C@@H](C(=O)N(C)CC(=O)N[C@@H](CCC(=O)O)C(=O)NCC(=O)N[C@@H](CCC(=O)O)C(=O)NCCOCCOCC(=O)NCCOCCOCC(=O)N[C@@H](CCCCNC(=O)CC[C@H](NC(=O)CNC(=O)CC[C@H](NC(=O)CCCCCCCCCCCCCCCCCCC(=O)O)C(=O)O)C(=O)O)C(N)=O)NC(=O)[C@H](CCCNC(=N)N)NC(=O)[C@H](Cc2c[nH]cn2)NC(=O)[C@H](CCC(=O)O)NC(=O)CNC(=O)[C@H](Cc2c[nH]c3ccccc23)NC(=O)[C@H](CC(=O)O)NC(=O)[C@H](CCC(N)=O)NC(=O)[C@H](Cc2cn(C)c3ccccc23)NC1=O` [Compound 128] (Ac-SEFCI[Trp(1-Me)]QDWGEHRC[Sar]EGE[AEEA][AEEA]K([γGlu-Gly-γGlu-C20 diacid])-NH2; disulfide 4-14), the IC50 is reported as less than 100 nM.
`CC[C@H](C)[C@@H]1NC(=O)[C@@H](NC(=O)[C@H](Cc2ccccc2)NC(=O)[C@H](CCC(=O)O)NC(=O)[C@H](CO)NC(C)=O)CSSC[C@@H](C(=O)N(C)CC(=O)N[C@@H](CCC(=O)O)C(=O)NCC(=O)N[C@@H](CCC(=O)O)C(=O)NCC(=O)NCC(=O)NCC(=O)N[C@@H](CCCCNC(=O)CC[C@H](NC(=O)CNC(=O)CC[C@H](NC(=O)CCCCCCCCCCCCCCCCC(=O)O)C(=O)O)C(=O)O)C(N)=O)NC(=O)[C@H](CCCNC(=N)N)NC(=O)[C@H](Cc2c[nH]cn2)NC(=O)[C@H](CCC(=O)O)NC(=O)CNC(=O)[C@H](Cc2c[nH]c3ccccc23)NC(=O)[C@H](CC(=O)O)NC(=O)[C@H](CCC(N)=O)NC(=O)[C@H](Cc2cn(C)c3ccccc23)NC1=O` [Compound 129] (Ac-SEFCI[Trp(1-Me)]QDWGEHRC[Sar]EGEGGGK([γGlu-Gly-γGlu-C18 diacid])-NH2; disulfide 4-14) was tested, and the IC50 was less than 100 nM.
`CC[C@H](C)[C@@H]1NC(=O)[C@@H](NC(=O)[C@H](Cc2ccccc2)NC(=O)[C@H](CCC(=O)O)NC(=O)[C@H](CO)NC(C)=O)CSSC[C@@H](C(=O)N[C@H](C(=O)N[C@@H](CCC(=O)O)C(=O)NCC(=O)N[C@@H](CCC(=O)O)C(=O)NCC(=O)NCC(=O)NCC(=O)N[C@@H](CCCCNC(=O)CC[C@H](NC(=O)CNC(=O)CC[C@H](NC(=O)CCCCCCCCCCCCCCCCC(=O)O)C(=O)O)C(=O)O)C(N)=O)[C@@H](C)O)NC(=O)[C@H](CCCNC(=N)N)NC(=O)[C@H](Cc2c[nH]cn2)NC(=O)[C@H](CCC(=O)O)NC(=O)CNC(=O)[C@H](Cc2c[nH]c3ccccc23)NC(=O)[C@H](CC(=O)O)NC(=O)[C@H](CCC(N)=O)NC(=O)[C@H](Cc2cn(C)c3ccccc23)NC1=O` [Compound 130] (Ac-SEFCI[Trp(1-Me)]QDWGEHRCTEGEGGGK([γGlu-Gly-γGlu-C18 diacid])-NH2; disulfide 4-14) gave an IC50 of less than 100 nM.
`CC[C@H](C)[C@@H]1NC(=O)[C@@H](NC(=O)[C@H](Cc2ccccc2)NC(=O)[C@H](CCC(=O)O)NC(=O)[C@H](CO)NC(C)=O)CSSC[C@@H](C(=O)N[C@H](C(=O)N[C@@H](CCC(=O)O)C(=O)NCC(=O)N[C@@H](CCC(=O)O)C(=O)NCC(=O)NCC(=O)NCC(=O)N[C@@H](CCCCNC(=O)CC[C@H](NC(=O)CNC(=O)CC[C@H](NC(=O)CCCCCCCCCCCCCCC(=O)O)C(=O)O)C(=O)O)C(N)=O)[C@@H](C)O)NC(=O)[C@H](CCCNC(=N)N)NC(=O)[C@H](Cc2c[nH]cn2)NC(=O)[C@H](CCC(=O)O)NC(=O)CNC(=O)[C@H](Cc2c[nH]c3ccccc23)NC(=O)[C@H](CC(=O)O)NC(=O)[C@H](CCC(N)=O)NC(=O)[C@H](Cc2cn(C)c3ccccc23)NC1=O` [Compound 131] (Ac-SEFCI[Trp(1-Me)]QDWGEHRCTEGEGGGK([γGlu-Gly-γGlu-C16 diacid])-NH2; disulfide 4-14) gave an IC50 of less than 100 nM.
In the case of `CC[C@H](C)[C@@H]1NC(=O)[C@@H](NC(=O)[C@H](Cc2ccccc2)NC(=O)[C@H](CCC(=O)O)NC(=O)[C@H](CO)NC(C)=O)CSSC[C@@H](C(=O)N(C)CC(=O)N[C@@H](CCC(=O)O)C(=O)N[C@@H](CCCCN)C(=O)N[C@@H](CCC(=O)NCC(=O)NCC(=O)NCC(=O)N[C@@H](CCCCNC(=O)CC[C@H](NC(=O)CNC(=O)CC[C@H](NC(=O)CCCCCCCCCCCCCCCCC(=O)O)C(=O)O)C(=O)O)C(N)=O)C(=O)O)NC(=O)[C@H](CCCNC(=N)N)NC(=O)[C@H](Cc2c[nH]cn2)NC(=O)[C@H](CCC(=O)O)NC(=O)CNC(=O)[C@H](Cc2c[nH]c3ccccc23)NC(=O)[C@H](CC(=O)O)NC(=O)[C@H](CCC(N)=O)NC(=O)[C@H](Cc2cn(C)c3ccccc23)NC1=O` [Compound 132] (Ac-SEFCI[Trp(1-Me)]QDWGEHRC[Sar]EK[γGlu]GGGK([γGlu-Gly-γGlu-C18 diacid])-NH2; disulfide 4-14), the IC50 is reported as less than 100 nM.
`CC[C@H](C)[C@@H]1NC(=O)[C@@H](NC(=O)[C@H](Cc2ccccc2)NC(=O)[C@H](CCC(=O)O)NC(=O)[C@H](CO)NC(C)=O)CSSC[C@@H](C(=O)N[C@H](C(=O)N[C@@H](CCC(=O)O)C(=O)N[C@@H](CCCCN)C(=O)N[C@@H](CCC(=O)NCC(=O)NCC(=O)NCC(=O)N[C@@H](CCCCNC(=O)CC[C@H](NC(=O)CNC(=O)CC[C@H](NC(=O)CCCCCCCCCCCCCCCCC(=O)O)C(=O)O)C(=O)O)C(N)=O)C(=O)O)[C@@H](C)O)NC(=O)[C@H](CCCNC(=N)N)NC(=O)[C@H](Cc2c[nH]cn2)NC(=O)[C@H](CCC(=O)O)NC(=O)CNC(=O)[C@H](Cc2c[nH]c3ccccc23)NC(=O)[C@H](CC(=O)O)NC(=O)[C@H](CCC(N)=O)NC(=O)[C@H](Cc2cn(C)c3ccccc23)NC1=O` [Compound 133] (Ac-SEFCI[Trp(1-Me)]QDWGEHRCTEK[γGlu]GGGK([γGlu-Gly-γGlu-C18 diacid])-NH2; disulfide 4-14) showed an IC50 of less than 100 nM.
In the case of `CC[C@H](C)[C@@H]1NC(=O)[C@@H](NC(=O)[C@H](Cc2ccccc2)NC(=O)[C@H](CCC(=O)O)NC(C)=O)CSSC[C@@H](C(=O)N[C@@H](CCC(=O)O)C(=O)NCC(=O)N[C@@H](CCC(=O)O)C(=O)N[C@@H](CCCCNC(=O)CC[C@H](NC(=O)CNC(=O)CC[C@H](NC(=O)CCCCCCCCCCCCCCCCC(=O)O)C(=O)O)C(=O)O)C(N)=O)NC(=O)[C@H](CCCNC(=N)N)NC(=O)[C@H](Cc2c[nH]cn2)NC(=O)[C@H](CCC(=O)O)NC(=O)CNC(=O)[C@H](Cc2c[nH]c3ccccc23)NC(=O)[C@H](CC(=O)O)NC(=O)[C@H](CCC(N)=O)NC(=O)[C@H](Cc2cn(C)c3ccccc23)NC1=O` [Compound 134] (Ac-EFCI[Trp(1-Me)]QDWGEHRCEGEK([γGlu-Gly-γGlu-C18 diacid])-NH2; disulfide 3-13), the IC50 is reported as less than 100 nM.
In the case of `CC[C@H](C)[C@@H]1NC(=O)[C@@H](NC(=O)[C@H](Cc2ccccc2)NC(=O)[C@H](CCC(=O)O)NC(=O)[C@H](CO)NC(C)=O)CSSC[C@@H](C(=O)N[C@H](C(=O)N[C@@H](CCC(=O)O)C(=O)NCC(=O)N[C@@H](CCC(=O)O)C(=O)NCCCCCCCC(=O)N[C@@H](CCCCNC(=O)CC[C@H](NC(=O)CNC(=O)CC[C@H](NC(=O)CCCCCCCCCCCCCCCCC(=O)O)C(=O)O)C(=O)O)C(N)=O)[C@@H](C)O)NC(=O)[C@H](CCCNC(=N)N)NC(=O)[C@H](Cc2c[nH]cn2)NC(=O)[C@H](CCC(=O)O)NC(=O)CNC(=O)[C@H](Cc2c[nH]c3ccccc23)NC(=O)[C@H](CC(=O)O)NC(=O)[C@H](CCC(N)=O)NC(=O)[C@H](Cc2cn(C)c3ccccc23)NC1=O` [Compound 136] (Ac-SEFCI[Trp(1-Me)]QDWGEHRCTEGE[Aoc]K([γGlu-Gly-γGlu-C18 diacid])-NH2; disulfide 4-14), the IC50 is reported as less than 100 nM.
